The structures appear in SMILES notation.

This data set in a line: gradient 5% acetonitrile 3 min, to 50% in 2 min, to 85% in 15 min, held 3 min, 100 µL/min. The conditions noted are these: column: Zorbax Extend-C18 2.1 x 50 mm; eluents: water / acetonitrile, 0.1% formic acid. The procedure, abridged:
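Retention times come from adduct peaks that were picked computationally and then checked by hand. The standards, pure and pooled in mixtures of ~100 molecules, were run on a Zorbax Extend-C18 column (2.1 × 50 mm, 1.8 μm) at 100 μL/min with water and acetonitrile, each with 0.1% formic acid. Detection was by quadrupole time-of-flight mass spectrometry in positive and negative ionization mode, with a dead volume of 40 μL and a dwell volume of 900 μL.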
`O=C(NCc1ccccc1Cl)c1c(O)c2cccnc2n(-c2cccc(F)c2)c1=O`: the RP-LC retention time was found to be 1230 s. Molecule `Cc1ccc(-n2cc(C(=O)OCC(=O)OC(C)C)c3ccccc3c2=O)cc1` returned an RP-LC retention time of 1130 s. `CC(=O)c1cccc(C(=O)N2CCC3(CC2)NC(=O)N(Cc2ccccc2)C3=O)c1`: the RP-LC retention time was found to be 733 s.

Molecule `CCS(=O)(=O)N1CCC2(CC1)C(OC)CN2c1cccc(F)c1` (stereo not drawn) returned an RP-LC retention time of 965 s. On to `COc1ccc(CCO[C@@H]2CCCC[C@H]2N2CC[C@@H](O)C2)cc1OC`, for which the RP-LC retention time was 684 s. The molecule `CS(=O)(=O)c1ccc(CC(=O)N2CCN(c3ccc(=O)n(-c4ccc(Cl)cc4)n3)CC2)cc1` displayed an RP-LC retention time of 739 s.

`COc1ccc(C)cc1NC(=O)NC1CCN(c2ccc(F)cc2)C1=O` (stereo not drawn) registered an RP-LC retention time of 855 s.

Consider `O=C(CNC(=O)c1ccc2c(c1)OCO2)Nc1nc2ccccc2[nH]1`, for which the RP-LC retention time was determined as 611 s. Next, `CC(=O)Nc1ccc(NC(=O)[C@H]2C[C@H]3CCCN3[C@@]23C(=O)N(C)c2ccccc23)cc1`: 572 s; `CCOC(=O)c1[nH]c(C)c(C(=O)CN(CC2CCCO2)C(=O)c2ccc(F)cc2)c1C` (stereo not drawn): 800 s. Consider `Cc1ccc(CNC(=O)Cn2c(=O)nc(N3CCC(C)CC3)c3ccccc32)cc1`, for which the RP-LC retention time was 860 s. Take `Cc1ccc(Sc2nccnc2N2CCCC(C(=O)N3CCN(c4ccccc4C)CC3)C2)cc1` (stereo not drawn): the RP-LC retention time came out at 1330 s.

In the case of `COc1cccc(CNc2nc3ccncc3n(C(C)C)c2=O)c1OC`, the RP-LC retention time turned out to be 644 s. In turn, `CCOc1ccccc1NC(=O)C1CCN(S(=O)(=O)c2c(C)nn(-c3ccccc3)c2C)CC1` showed an RP-LC retention time of 1030 s. Next, `Cc1ccc2nc(-c3cccc(Br)c3)c(Nc3ccccc3C)n2c1`: 849 s; `CC1CN(C(=O)NCC2CCCO2)c2ccccc2O1` (stereo not drawn): 754 s. `CCOCC(=O)N1CCOc2ccc(N(C)C)cc2C1` yielded an RP-LC retention time of 566 s. Take `Cc1ccc(NC(=O)N2CCCC2c2cc(C)on2)c(C)c1` (stereo not drawn): the RP-LC retention time stood at 823 s. Then `O=S(=O)(c1ccc2c(c1)CCC2)N1CCCC1c1nc(-c2ccc(Cl)cc2)no1` (stereo not drawn), with 1310 s; and `FC(F)(F)Oc1ccccc1CN1CCC[C@H]1c1nc(C2CCOCC2)n[nH]1`, with 597 s. The molecule `COc1ccc(S(=O)(=O)N2CCCC(C)(C(=O)NCc3cccc(OC)c3)C2)cc1` (stereo not drawn) gave an RP-LC retention time of 903 s. The molecule `NS(=O)(=O)c1ccc(NC(=O)Cn2cnc(-c3ccccc3)cc2=O)cc1` showed an RP-LC retention time of 638 s. Consider `CC1CCC(NC(=O)C2c3ccccc3C(=O)N2CCCN2CCOCC2)CC1` (stereo not drawn), for which the RP-LC retention time worked out at 640 s. Regarding `CCc1cc(-c2csc(S(=O)(=O)NCCCN3CCN(c4ccccc4)CC3)c2)on1`, the RP-LC retention time is 736 s.

For the molecule `Cc1ccc(C)c(NC(=O)Cn2ccc3ccc(-c4nnc(C)o4)cc32)c1`, the RP-LC retention time is 1150 s.

On to `O=C(NCCNC(=O)[C@@H]1CCCN1C(=O)c1ccc(F)cc1)c1ccc(F)cc1`, for which the RP-LC retention time is 656 s. In turn, `O=C(Cn1cnc2nc3c(cc2c1=O)CCCC3)Nc1cc(F)ccc1F` registered an RP-LC retention time of 738 s. For `CC(=O)c1ccn(S(=O)(=O)c2ccc(C)cc2)c1`, the RP-LC retention time is 804 s. Then `COc1cc(C(=O)NCC(c2ccc3c(c2)OCO3)N2CCN(C)CC2)cc(OC)c1OC` (stereo not drawn), with 610 s; and `COc1ccc(C(=O)N2CCCC2c2nc(-c3ccc(OC)c(OC)c3)no2)cc1OC` (stereo not drawn), with 817 s; and `O=C(Cn1nc2c3cc(-c4ccc(Cl)cc4)nn3ccn2c1=O)NC1CCCCC1`, with 906 s. `CC(C)Sc1ccc(CC(=O)NCC(C)(O)c2ccccc2)cc1` (stereo not drawn) came in with an RP-LC retention time of 841 s.

In the case of `CCn1cnc2ccc(-c3noc(-c4ccc(OC)c(F)c4)n3)cc21`, the RP-LC retention time is 780 s. Next, `COc1ccc(NC(=O)N2CC=C(c3cn(C(C)C)c4ncccc34)CC2)cc1OC`: 826 s; `CCCNC(=O)N1CCCN(Cc2ccc3c(c2)OCO3)c2ccccc21`: 924 s; `CCN1C(=O)COc2ccc(-c3noc(COc4ccc(F)cc4)n3)cc21`: 1030 s. Then `Cc1oc(-c2[nH]ncc2C(=O)N2CCOCC2)cc1S(=O)(=O)Nc1ccccc1F`, with 662 s; and `Cc1cc(C)c(S(=O)(=O)NCCn2c(C)cnc2C2CC2)cc1C`, with 659 s. Molecule `CC(C)OC(=O)C(C(=O)OC(C)C)=C1SC=CS1` had an RP-LC retention time of 1110 s. The molecule `CCOC(=O)c1ccc(N2C=C(C(=O)OC)S(=O)(=O)c3ccc(F)cc32)cc1` registered an RP-LC retention time of 933 s. Turning to `Cc1sc(-c2ccn[nH]2)cc1NC(=O)c1ccc2nc[nH]c2c1`, the RP-LC retention time worked out at 670 s. With `O=C(NC1CCN(c2cc(-c3ccc(F)cc3)[nH]n2)C1)c1ccccc1F` (stereo not drawn), the RP-LC retention time was 714 s. Consider `CCOc1cc(N)c(Cl)cc1C(=O)NCC1CN(Cc2ccc(F)cc2)CCO1` (stereo not drawn), for which the RP-LC retention time is 714 s.

For the molecule `COc1ccc(OC)c(N2CC(c3nc4ccccc4n3CCN3CCOCC3)CC2=O)c1` (stereo not drawn), the RP-LC retention time came out at 597 s. `CCCCOCc1cc(CN2CCN(C)CC2)c(O)c2ncccc12`: the RP-LC retention time was 592 s. As for `CS(=O)(=O)NCC1CCC(C(=O)Nc2cccc3nsnc23)CC1` (stereo not drawn), the RP-LC retention time was 700 s. `Cc1cc(=O)n(CC(=O)Nc2cccc(C#N)c2)c(N2CCOCC2)n1` had an RP-LC retention time of 604 s. As for `Cc1nc(-c2csc(S(=O)(=O)N3CCC(C(=O)Nc4ccc(F)cc4C)CC3)c2)no1`, the RP-LC retention time was found to be 886 s. Regarding `O=C(NCC1CCCO1)c1nnn(-c2ccc(F)cc2)c1-c1ccncc1` (stereo not drawn), the RP-LC retention time was 679 s. `COc1ccc(CCNC(=O)CN2C(=O)CCc3cc(Br)ccc32)cc1OC`: the RP-LC retention time is 800 s. Then `NS(=O)(=O)c1ccc(Cl)c(-c2nnc(-c3ccccc3)o2)c1`, with 788 s; and `O=C(NCCn1c(=O)n(Cc2ccccc2)c2cccnc21)c1ccsc1`, with 750 s; and `Cc1ccn2cc(-c3ccc(NS(=O)(=O)c4ccc(C)c(C)c4)cc3)nc2n1`, with 682 s.

Molecule `COC(=O)c1nnn(CC(=O)NCc2ccc3c(c2)OCO3)c1C(=O)OC` yielded an RP-LC retention time of 657 s.

Consider `CCC(=O)N1CCc2c(C(=O)NCc3ccc(N4CCC(C)CC4)cc3)cccc21`, for which the RP-LC retention time turned out to be 640 s. Then `CCOc1ccc2c(n1)CCN(C(=O)NC1CCCC1)C2`, with 731 s; and `CCOc1ccccc1CN1C[C@@H]2C(=O)N(C)C(=O)[C@@H]2C1`, with 595 s. `COc1ccc(N2CCCS2(=O)=O)cc1NC(=O)c1ccc(Br)o1` came in with an RP-LC retention time of 767 s. As for `COc1ccc(-c2cc3nn(CC(=O)NCc4cccc(OC)c4)c(=O)n3c(C)n2)cc1`, the RP-LC retention time turned out to be 875 s. `CC1Oc2ccc(-c3csc(NC(=O)c4cccs4)n3)cc2NC1=O` (stereo not drawn) registered an RP-LC retention time of 839 s. Molecule `COc1ccc(C(=O)Nc2nc3c(s2)CCCC3C(=O)NCCC2=CCCCC2)cc1` (stereo not drawn) came in with an RP-LC retention time of 1040 s.

With `Cc1ccc(CN2C[C@@H]3C(=O)N(Cc4ccc5c(c4)OCO5)C(=O)[C@@H]3C2)cc1`, the RP-LC retention time turned out to be 760 s. Consider `Cc1cc(F)ccc1NC(=O)C1CCCN(c2cnc3nccnc3c2)C1` (stereo not drawn), for which the RP-LC retention time was found to be 711 s.

For the molecule `O=C(NCCc1csc(-c2ccc(F)cc2)n1)Nc1ccccc1C(F)(F)F`, the RP-LC retention time turned out to be 948 s. For `Cc1cc(OCC(=O)Nc2ccc3c(c2)OCO3)nc(-c2ccc(F)cc2)n1`, the RP-LC retention time came to 960 s. In turn, `Cc1cc(C)cc(NC(=O)N2CCC3(CC2)NC(=O)c2ccccc2N3C)c1` had an RP-LC retention time of 808 s. `COc1ccccc1OCCN1C(=O)C2(CCOCC2)CC1c1nnnn1C(C)(C)C` (stereo not drawn) had an RP-LC retention time of 796 s.

Molecule `O=C(Cn1cnc2c(sc3nc(-c4ccccc4)ccc32)c1=O)Nc1ccccc1F` yielded an RP-LC retention time of 993 s.

Molecule `COc1ccc(-c2cc(C(=O)N3CCN(S(=O)(=O)c4ccc(OC)c(OC)c4)CC3)[nH]n2)cc1` yielded an RP-LC retention time of 795 s.

In turn, `CCN1CCN(c2cc(C(=O)O)c3cc(NC(=O)C4CCC4)ccc3n2)CC1` showed an RP-LC retention time of 565 s. As to `c1cc2c(cc1-c1noc(C3CCC3)n1)nnn2CCN1CCCCC1`, the RP-LC retention time is 654 s. `O=C(NCCc1c[nH]c2ccccc12)c1csc(NS(=O)(=O)c2cccs2)n1` registered an RP-LC retention time of 740 s.

`CCOc1ccc(-c2nc(Cn3cnc4nc5c(cc4c3=O)CCCC5)c(C)o2)cc1` gave an RP-LC retention time of 870 s. `COc1cccc(S(=O)(=O)N2C[C@@H]3C[C@H]2C[C@@H]3NC(=O)c2cccs2)c1` registered an RP-LC retention time of 854 s. Next, `Cc1cc(N2CCN(C(=O)Nc3ccc(Cl)cc3)CC2)nc(N2CCOCC2)n1`: 655 s; `Cc1ccc2nc(-c3cccc(Br)c3)c(Nc3ccc4c(c3)OCCO4)n2c1`: 749 s; `Cc1ccc(-c2ccc3nn(Cc4nc(-c5ccc(OC(F)(F)F)cc5)no4)c(=O)n3n2)cc1`: 1120 s.

`CC1CCN(c2cc(-n3cnc(C(=O)N4CCN(c5ncccn5)CC4)c3)ncn2)CC1` had an RP-LC retention time of 880 s.

For the origin of these results see the METLIN SMRT retention time set (Domingo-Almenara et al. 2019).
